Experiments:
[1] = tested on: Alternaria brassicicola; assay: Test B: potentiating effect with a plant defense molecule on growth of Alternaria brassicicola; assay type: cell-based
Method: (§1) Test B: • 1) Determining a non-fungicidal amount of said agent, preferably according to Test A; • 2) Determining a non-fungicidal amount of a plant defense molecule, preferably according to Test A; • 3) Measuring growth of fungal conidia in a medium comprising a combination of a non-fungicidal amount of the agent, as determined in step 1, and a non-fungicidal amount of the plant defense molecule, as determined in step 2. In one embodiment, the growth is measured as follows: Suspensions of fungal conidia (starting material: 10^5 conidia/mL) are cultured in liquid medium, such as, for example, 300 μL of PBD medium, on microplate wells at 25° C. with shaking at 175 rpm for 5 minutes every 10 minutes. Non-fungicidal concentrations of the tested agent and of the tested plant defense molecule are added on wells, and fungal growth is measured during at least 5 hours, preferably at least 10, 20, 30 hours. Methods for measuring fungal growth are well known from the skilled artisan. Examples of such methods include, but are not limited to, photometry, such as, for example, spectrophotometric methods; or nephelometry, such as, for example, laser nephelometry as described in Joubert et al (Biotechniques, 2010, 48:399-404). Growth inhibition is measured by comparing the Area Under Curves (AUC) of treated samples and of untreated controls.
The potentiating effect of chelerythrin is measured in a suspension of conidia treated with a plant defense molecule, camalexin, which is present at a non-fungicidal amount as determined hereinabove. Said non-fungicidal amount is consistent with the amount of camalexin produced by an infected plant organ.
Alternaria brassicicola growth was measured as described hereinabove.
A non-fungicidal amount of chelerythrin (as determined in Example 1a) and/or a non-fungicidal amount of camalexin (as determined in Example 1b) or 10 μL of DMSO are added per well, and growth curves were drawn (FIG. 3).
In the Table 5 below are shown compounds (column 1) having a potentiating effect of a plant defense molecule (column 2) for the inhibition of a pathogenic fungus (column 3). The type of the potentiating agent in this particular situation is given in column 4 (homologous or heterologous). Triads were identified according to Test B.

[2] = tested on: Alternaria brassicicola; assay: Test A: growth of Alternaria brassicicola conidia followed by nephelometry, to find the non-fungicidal amount; assay type: cell-based
Method: (§2) Suspensions of fungal conidia (starting material being for example 10^5 conidia/mL) are cultured in liquid medium, such as, for example, 300 μL of PBD medium, on microplate wells at 25° C. with shaking at 175 rpm for 5 minutes every 10 minutes. Increasing concentrations of the tested product are added on wells, and fungal growth is measured, during at least 5 hours, preferably at least 10, 20, 30 hours. Methods for measuring fungal growth are well known from the skilled artisan. Examples of such methods include, but are not limited to, photometry, such as, for example, spectrophotometric methods; or nephelometry, such as, for example, laser nephelometry as described in Joubert et al (Biotechniques, 2010, 48:399-404). Growth inhibition is measured by comparing the Area Under Curves (AUC) of treated samples and of untreated controls. Test A is carried out in Example 1.
Alternaria brassicicola strains were cultivated at 24° C. on potato dextrose (PD) medium (Cat. No. 213200; Becton Dickinson, USA).
(§3) For inoculum preparation, conidia were collected from 8-days-old solid cultures by adding PD broth followed by gentle scraping of the agar plates. They were counted in a Thoma's chamber and the conidial suspensions were diluted to the concentration of 10^5 conidia/mL.
Growth was automatically recorded for at least 30 hours at 25° C. using a nephelometric reader (NEPHELOstar Galaxy, BMG Labtech, Germany) equipped with a 635-nm laser as radiation source. During incubation, the 96-well plates were subjected to shaking at 175 rpm for 5 minutes every 10 minutes. Measurements were done every hour with a gain value of 90 and a percentage of the maximum value of 20%. Each well was measured for 0.1 second with a laser beam of 2.5 mm.
Chelerythrin (25 μM or 50 μM, test wells) or 10 μL of DMSO (chelerythrin solvent, control wells) were added on wells, and growth curves were drawn (FIG. 1).
Camalexin (10, 20, 40 or 60 μM, test wells) or 10 μL of DMSO (chelerythrin solvent, control wells) were added on wells, and growth curves were drawn (FIG. 2).

[3] = tested on: Alternaria brassicicola; assay: In vivo efficacy on cabbage leaves inoculated with Alternaria brassicicola; details: 25 μM chelerythrin in inoculum; intact or prewounded B. oleracea cv Bartolo leaves; 6 dpi; vs DMSO side
Method: Example 2 discloses a protocol for determining the in vivo efficacy of the composition of the invention, comprising a potentiating amount of chelerythrin (25 μM), as determined in Example 1.
5 μL drops of Alternaria brassicicola conidia suspension (10^5 to 10^3 conidia/mL) were inoculated on intact or prewounded (i.e wherein the synthesis of plant defense molecules such as Brassinin was naturally triggered by the aggression) leaves of B. oleracea cv Bartolo plants at stages 4-6 leaves per plant. Inocula were deposited on the left and right sides symmetrically from the central vein: inocula comprising 25 μM of chelerythrin were deposited on the right side, and inocula comprising DMSO were deposited on the left side. The plants were then maintained under saturing humidity (100% relative humidity).

[4] = tested on: BY4743 strain transformed with the empty pYES2-CT vector; assay: Test C: growth of S. cerevisiae control strain (empty pYES2-CT vector); assay type: cell-based, Saccharomyces cerevisiae; details: for Area under the curve: OD 600 nm
Method: (§4) Test C is based on the essential role of Pkc1 in fungal cells: if its essential function is inhibited, the growth of the fungal cells will be affected. Therefore, in Test C, two different strains of S. cerevisiae are cultured in the presence of the tested compound: the first one is a wild-type strain, whereas the second overexpresses the fungal Pkc1 gene. If the tested compound is an inhibitor of the fungal Pkc1 protein, the growth of the wild-type strain will be inhibited, whereas the induction of the overexpression of the heterologous fungal Pkc1 gene will restore, at least partially, the growth rate. Test C is carried out in Example 3.
(§5) Growth of this strain was monitored in an inducing medium (GS uracil-free medium supplemented with galactose) in presence of increasing concentrations of chelerythrin (0, 25, 50 or 75 μM), and was compared with the growth of a control strain (BY4743 strain transformed with the empty pYES2-CT vector). Growth was measured by spectrometry (Optic density: 600 nm). Inhibition of growth was assessed by comparison of the area under the curves.

[5] = tested on: S. cerevisiae strain overexpressing Alternaria brassicicola Pkc1; assay: Test C: growth of S. cerevisiae strain overexpressing Alternaria brassicicola Pkc1 (pYES-PKC); assay type: cell-based, Saccharomyces cerevisiae; details: pYES2-PKC; for Area under the curve: inducing medium, OD 600 nm
Method: as §4
Construction of a S. cerevisiae strain overexpressing Alternaria brassicicola Pkc1 The cDNA encoding the Pkc1 gene of Alternaria brassicicola (http://genome.jgi-psf.org/Altbr1/Altbr1.home.html; sequence ref: AB07449.1) was amplified by PCR and cloned into a pYES2-CT vector (Invitrogen, Paisley, UK). The resulting vector (pYES-PKC) was inserted in a BY4743 strain of Saccharomyces cerevisiae.
as §5

[6] = tested on: BY4743 strain of Saccharomyces cerevisiae; assay: Test D: growth of S. cerevisiae BY4743 in normal and high osmotic pressure conditions; assay type: cell-based
Method: Test D is based on the fact that the protein Pkc1 is implied in the CWI pathway. In a situation where the CWI pathway is impaired, growth of fungal cells is less affected by a high osmotic pressure. Consequently, in Test D, a S. cerevisiae strain is cultured in conditions of high osmotic pressure, in the presence or in absence of the tested compound. If said compound is a Pkc1 inhibitor, it will inhibit the growth of cells in normal osmotic pressure conditions, but not, or less, in high osmotic pressure conditions. Test D is carried out in Example 3.
The growth of a BY4743 strain of Saccharomyces cerevisiae on a liquid SD medium comprising increasing concentrations of chelerythrin (0, 10, 15, 20 or 25 μM) was monitored and compared to the growth of the same strain on a liquid SD medium containing 1M of sorbitol (high osmotic pressure conditions) in presence of increasing concentrations of chelerythrin.
Growth was measured by spectrometry (optic density: 600 nm) Inhibition of growth was assessed by comparison of the area under the curves.

[7] = tested on: Alternaria dauci; assay: Growth inhibition of Alternaria dauci (protocol of Example 1), non-fungicidal amount; assay type: cell-based
Method: as §2, with “Examples of such methods include, but are not limited to, photometry, such as, for example, spectrophotometric methods; or nephelometry, such as, for example, laser nephelometry as described in Joubert et al (Biotechniques, 2010, 48:399-404).” left out, “Test A is carried out in Example 1.” left out
as §3
Growth was automatically recorded for at least 30 hours at 25° C. using a nephelometric reader (NEPHELOstar Galaxy, BMG Labtech, Germany) equipped with a 635-nm laser as radiation source. […] Each well was measured for 0.1 second with a laser beam of 2.5 mm.
The non-fungicidal amount of the sanguinarine contained in M. cordata extract against A. dauci strain was determined as 12 μM or 4 ppm according to the protocol described in Example 1. […]

[8] = tested on: Botrytis cinerea; assay: Test B: potentiating effect with a plant defense molecule on Botrytis cinerea; assay type: cell-based
Method: as §1, with “controls. […]” for “controls.”

[9] = tested on: Alternaria dauci; assay: Test B: potentiating effect with a plant defense molecule on growth of Alternaria dauci; assay type: cell-based; details: plant defense molecule 6-methoxymellein
Method: as §1, with “Examples of such methods include, but are not limited to, photometry, such as, for example, spectrophotometric methods; or nephelometry, such as, for example, laser nephelometry as described in Joubert et al (Biotechniques, 2010, 48:399-404).” left out, “controls. […]” for “controls.”
Following the aforementioned growth inhibition protocol, the following treatments are assessed: • 6-methoxymellein 125 μM, • 6-methoxymellein 100 μM, • 6-methoxymellein 125 μM and M. cordata extract (10 μM of Sanguinarine), • 6-methoxymellein 100 μM and M. cordata extract (10 μM of Sanguinarine).

[10] = plant defense molecule Resveratrol, Alternaria brassicicola
[11] = plant defense molecule Brassinin, Alternaria brassicicola
[12] = plant defense molecule Camalexin, Alternaria brassicicola

CCOc1cc2c(OCC)cc3c4cc(OC)c(OC)cc4cnc3c2cc1OC [Compound 3]
Type of potentiating agent (compound having a potentiating effect of the plant defense molecule) [1, 10]: Heterologous

COc1ccc2c(c[n+](C)c3c4cc5c(cc4ccc23)OCO5)c1OC [Chelerythrin]
Alternaria brassicicola growth inhibition ([2]; 25 μM chelerythrin, nephelometry, at least 30 hours, 25° C., vs DMSO control): does not inhibit | non-fungicidal amount ([2]; Alternaria brassicicola, in vitro): 25 µM | inhibition of Alternaria brassicicola growth by the combination ([1]; 25 μM chelerythrin combined with 10 μM camalexin, both non-fungicidal amounts): drastic inhibition | Type of potentiating agent (compound having a potentiating effect of the plant defense molecule) [1, 11]: Homologous | Type of potentiating agent (compound having a potentiating effect of the plant defense molecule) [1, 12]: Homologous | potentiating amount ([1]; with non-fungicidal amount of camalexin, Alternaria brassicicola): 25 µM | fungal infection of cabbage leafs [3]: limits in vivo the fungal infection | Area under the curve ([4]; 25 μM chelerythrin): 8.6 | Area under the curve ([4]; 50 μM chelerythrin): 3.2 | Area under the curve ([4]; 75 μM chelerythrin): 2.5 | inhibition at 25 µM ([4]; Saccharomyces cerevisiae, 25 μM chelerythrin): 43% | inhibition at 50 µM ([4]; Saccharomyces cerevisiae, 50 μM chelerythrin): 79% | inhibition at 75 µM ([4]; Saccharomyces cerevisiae, 75 μM chelerythrin): 84% | inhibition at 25 µM ([5]; 25 μM chelerythrin): 15% | Area under the curve ([5]; 25 μM chelerythrin): 10.7 | inhibition at 50 µM ([5]; 50 μM chelerythrin): 25% | Area under the curve ([5]; 50 μM chelerythrin): 9.4 | inhibition at 75 µM ([5]; 75 μM chelerythrin): 30% | Area under the curve ([5]; 75 μM chelerythrin): 8.8 | Area under the curve ([6]; SD + Sorbitol (1M, high osmotic pressure), 10 μM chelerythrin): 5.2 | Area under the curve ([6]; SD + Sorbitol (1M, high osmotic pressure), 15 μM chelerythrin): 5.0 | Area under the curve ([6]; SD + Sorbitol (1M, high osmotic pressure), 20 μM chelerythrin): 2.0 | Area under the curve ([6]; SD medium, 10 μM chelerythrin): 14.3 | Area under the curve ([6]; SD medium, 15 μM chelerythrin): 11.8 | Area under the curve ([6]; SD medium, 20 μM chelerythrin): 10.4 | Area under the curve ([6]; SD medium, 25 μM chelerythrin): 8.1 | inhibition at 10 µM ([6]; Saccharomyces cerevisiae, SD + Sorbitol (1M, high osmotic pressure), 10 μM chelerythrin): -3% | inhibition at 15 µM ([6]; Saccharomyces cerevisiae, SD + Sorbitol (1M, high osmotic pressure), 15 μM chelerythrin): 1% | inhibition at 20 µM ([6]; Saccharomyces cerevisiae, SD + Sorbitol (1M, high osmotic pressure), 20 μM chelerythrin): 0% | inhibition at 10 µM ([6]; Saccharomyces cerevisiae, SD medium, 10 μM chelerythrin): 10% | inhibition at 15 µM ([6]; Saccharomyces cerevisiae, SD medium, 15 μM chelerythrin): 26% | inhibition at 20 µM ([6]; Saccharomyces cerevisiae, SD medium, 20 μM chelerythrin): 35% | inhibition at 25 µM ([6]; Saccharomyces cerevisiae, SD medium, 25 μM chelerythrin): 49%

c1c2c(cc3c1OCO3)-c1cc3ccc4c(c3c[n+]1CC2)OCO4 [Coptisin]
Type of potentiating agent (compound having a potentiating effect of the plant defense molecule) [1, 11]: Homologous | Type of potentiating agent (compound having a potentiating effect of the plant defense molecule) [1, 12]: Homologous

CCOc1cc2c3cc(OC)c(OC)cc3cnc2c2cc(OC)c(OC)cc12 [Compound 1]
Type of potentiating agent (compound having a potentiating effect of the plant defense molecule) [1, 10]: Heterologous

COc1cc2c(OC)cc3c4cc(OC)c(OC)cc4c(=O)n(C)c3c2cc1OC [Compound 5]
Type of potentiating agent (compound having a potentiating effect of the plant defense molecule) [1, 11]: Homologous | Type of potentiating agent (compound having a potentiating effect of the plant defense molecule) [1, 10]: Heterologous

COc1cc(O)c2c(c1)C[C@@H](C)OC2=O [6-methoxymellein]
growth inhibition of Alternaria dauci ([7]; 6-methoxymellein 100 μM): did not inhibit | growth inhibition of Alternaria dauci ([7]; 6-methoxymellein 125 μM): did not inhibit

CCOc1cc2c3cc(OC)c(OC)cc3c[n+](C)c2c2cc(OC)c(OC)cc12 [Compound 2]
Type of potentiating agent (compound having a potentiating effect of the plant defense molecule) [1, 11]: Homologous | Type of potentiating agent (compound having a potentiating effect of the plant defense molecule) ([8]; plant defense molecule Brassinin): Homologous | Type of potentiating agent (compound having a potentiating effect of the plant defense molecule) ([8]; plant defense molecule Camalexin): Homologous | Type of potentiating agent (compound having a potentiating effect of the plant defense molecule) [9]: Homologous

COc1cc2c[n+](C)c3c4cc(OC)c(OC)cc4c(OCc4ccccc4)cc3c2cc1OC [Compound 4]
Type of potentiating agent (compound having a potentiating effect of the plant defense molecule) [1, 11]: Homologous | Type of potentiating agent (compound having a potentiating effect of the plant defense molecule) [1, 10]: Heterologous

c1ccc2c(-c3nccs3)c[nH]c2c1 [camalexin, reference compound]
inhibition of Alternaria brassicicola growth ([2]; 10 μM camalexin): ≤ 20% | inhibition of Alternaria brassicicola growth ([2]; 20 μM camalexin): ≤ 20%
